Test results as given in patent publication US20230391768A2, “IMIDAZOPYRIDINE DERIVATIVES AND AZA-IMIDAZOPYRIDINE DERIVATIVES AS JANUS KINASE 2 INHIBITORS AND USES THEREOF” (Dana-Farber Cancer Institute, Inc., priority 2018, published 2023).

Legend:
Experiment in all cases: KINOMEscan
Type in all cases: binding
Conditions in all cases: read-out: percent of control
[1] = target: PIK3CA(E545K) (Homo sapiens (Human), UniProt P42336, E545K)
Description: (§1) In vitro profiling of Compound I-2 (1 μM) was performed using the DiscoveRx KINOMEscan® platform.

[2] = target: CSF1R-autoinhibited (Homo sapiens (Human), UniProt P07333)
Description: as §1

[3] = target: LCK (Homo sapiens (Human), UniProt P06239)
Description: as §1

[4] = target: ICK (Homo sapiens (Human), UniProt Q9UPZ9)
Description: as §1

[5] = target: BIKE (Homo sapiens (Human), UniProt Q9NSY1)
Description: as §1

[6] = target: DYRK1B (Homo sapiens (Human), UniProt Q9Y463)
Description: as §1

[7] = target: PRKCQ (Homo sapiens (Human), UniProt Q04759)
Description: as §1

[8] = target: EGFR(G719C) (Homo sapiens (Human), UniProt P00533, G719C)
Description: as §1

[9] = target: LRRK2 (Homo sapiens (Human), UniProt Q5S007)
Description: as §1

[10] = target: CDK3 (Homo sapiens (Human), UniProt Q00526)
CDK3, sequence (Q00526 whole entry): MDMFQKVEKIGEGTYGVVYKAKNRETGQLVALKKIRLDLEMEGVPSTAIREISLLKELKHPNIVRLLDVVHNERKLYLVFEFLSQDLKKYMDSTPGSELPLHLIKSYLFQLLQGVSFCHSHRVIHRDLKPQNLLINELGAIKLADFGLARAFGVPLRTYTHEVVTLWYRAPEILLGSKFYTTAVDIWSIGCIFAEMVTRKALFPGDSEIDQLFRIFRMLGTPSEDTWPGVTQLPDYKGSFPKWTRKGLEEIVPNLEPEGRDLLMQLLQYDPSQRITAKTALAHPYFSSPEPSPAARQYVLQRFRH
Description: as §1

[11] = target: PCTK2 (Homo sapiens (Human), UniProt Q00537)
Description: as §1

[12] = target: PKAC-alpha (Homo sapiens (Human), UniProt P17612)
Description: as §1

[13] = target: CSK (Homo sapiens (Human), UniProt P41240)
Description: as §1

[14] = target: ADCK3 (Homo sapiens (Human), UniProt Q8NI60)
Description: as §1

[15] = target: BRAF(V600E) (Homo sapiens (Human), UniProt P15056, V600E)
Description: as §1

[16] = target: AURKB (Homo sapiens (Human), UniProt Q96GD4)
Description: as §1

[17] = target: PRKX (Homo sapiens (Human), UniProt P51817)
Description: as §1

[18] = target: DMPK (Homo sapiens (Human), UniProt Q09013)
DMPK, sequence (Q09013 whole entry): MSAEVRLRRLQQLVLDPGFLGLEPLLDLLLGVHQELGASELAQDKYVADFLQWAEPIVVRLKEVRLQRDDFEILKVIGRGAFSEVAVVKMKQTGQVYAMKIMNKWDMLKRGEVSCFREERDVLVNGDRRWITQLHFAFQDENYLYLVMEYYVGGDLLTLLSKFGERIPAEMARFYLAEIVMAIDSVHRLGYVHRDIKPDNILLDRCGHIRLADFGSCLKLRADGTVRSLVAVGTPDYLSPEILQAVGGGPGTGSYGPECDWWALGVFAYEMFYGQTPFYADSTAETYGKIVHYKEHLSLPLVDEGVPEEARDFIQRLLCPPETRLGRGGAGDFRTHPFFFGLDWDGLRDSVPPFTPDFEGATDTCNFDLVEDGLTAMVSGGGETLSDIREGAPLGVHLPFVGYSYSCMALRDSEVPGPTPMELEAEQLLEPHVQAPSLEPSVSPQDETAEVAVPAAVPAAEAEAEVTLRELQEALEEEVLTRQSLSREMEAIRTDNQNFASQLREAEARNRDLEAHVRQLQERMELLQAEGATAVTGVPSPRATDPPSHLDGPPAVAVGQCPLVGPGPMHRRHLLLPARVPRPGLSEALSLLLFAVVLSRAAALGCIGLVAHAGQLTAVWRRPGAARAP
Description: as §1

[19] = target: BMPR1B (Homo sapiens (Human), UniProt O00238)
Description: as §1

[20] = target: MYLK4 (Homo sapiens (Human), UniProt Q86YV6)
MYLK4, sequence (Q86YV6 whole entry): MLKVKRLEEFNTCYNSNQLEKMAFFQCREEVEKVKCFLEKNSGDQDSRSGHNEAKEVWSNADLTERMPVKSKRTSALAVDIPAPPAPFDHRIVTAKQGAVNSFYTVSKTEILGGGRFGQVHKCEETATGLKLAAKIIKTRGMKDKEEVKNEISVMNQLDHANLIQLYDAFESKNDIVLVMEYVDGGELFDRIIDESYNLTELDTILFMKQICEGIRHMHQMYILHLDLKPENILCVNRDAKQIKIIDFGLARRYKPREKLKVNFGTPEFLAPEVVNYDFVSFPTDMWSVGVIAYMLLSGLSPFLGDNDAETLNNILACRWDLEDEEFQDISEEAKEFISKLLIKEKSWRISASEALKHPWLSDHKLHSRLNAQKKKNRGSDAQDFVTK
Description: as §1

[21] = target: PRKD3 (Homo sapiens (Human), UniProt O94806)
Description: as §1

[22] = target: STK35 (Homo sapiens (Human), UniProt Q8TDR2)
Description: as §1

[23] = target: LRRK2(G2019S) (Homo sapiens (Human), UniProt Q5S007, G2019S)
Description: as §1

[24] = target: BRSK1 (Homo sapiens (Human), UniProt Q8TDC3)
Description: as §1

[25] = target: MEK6 (Homo sapiens (Human), UniProt P52564)
Description: as §1

[26] = target: DAPK2 (Homo sapiens (Human), UniProt Q9UIK4)
DAPK2, sequence (Q9UIK4 whole entry): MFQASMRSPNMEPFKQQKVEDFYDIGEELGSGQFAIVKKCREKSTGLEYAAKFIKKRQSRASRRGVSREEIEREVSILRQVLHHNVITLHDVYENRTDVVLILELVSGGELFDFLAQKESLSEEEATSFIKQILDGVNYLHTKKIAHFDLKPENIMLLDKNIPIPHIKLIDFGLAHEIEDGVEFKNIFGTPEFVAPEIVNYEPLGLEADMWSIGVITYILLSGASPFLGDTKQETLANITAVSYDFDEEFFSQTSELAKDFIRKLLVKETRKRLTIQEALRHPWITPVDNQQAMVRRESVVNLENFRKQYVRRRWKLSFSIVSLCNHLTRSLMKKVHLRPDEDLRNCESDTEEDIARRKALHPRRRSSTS
Description: as §1

[27] = target: ACVR1B (Homo sapiens (Human), UniProt P36896)
Description: as §1

[28] = target: PIK3CA(1800L) (Homo sapiens (Human), UniProt P42336, I800L)
Description: as §1

[29] = target: EPHA7 (Homo sapiens (Human), UniProt Q15375)
EPHA7, sequence (Q15375 28-998): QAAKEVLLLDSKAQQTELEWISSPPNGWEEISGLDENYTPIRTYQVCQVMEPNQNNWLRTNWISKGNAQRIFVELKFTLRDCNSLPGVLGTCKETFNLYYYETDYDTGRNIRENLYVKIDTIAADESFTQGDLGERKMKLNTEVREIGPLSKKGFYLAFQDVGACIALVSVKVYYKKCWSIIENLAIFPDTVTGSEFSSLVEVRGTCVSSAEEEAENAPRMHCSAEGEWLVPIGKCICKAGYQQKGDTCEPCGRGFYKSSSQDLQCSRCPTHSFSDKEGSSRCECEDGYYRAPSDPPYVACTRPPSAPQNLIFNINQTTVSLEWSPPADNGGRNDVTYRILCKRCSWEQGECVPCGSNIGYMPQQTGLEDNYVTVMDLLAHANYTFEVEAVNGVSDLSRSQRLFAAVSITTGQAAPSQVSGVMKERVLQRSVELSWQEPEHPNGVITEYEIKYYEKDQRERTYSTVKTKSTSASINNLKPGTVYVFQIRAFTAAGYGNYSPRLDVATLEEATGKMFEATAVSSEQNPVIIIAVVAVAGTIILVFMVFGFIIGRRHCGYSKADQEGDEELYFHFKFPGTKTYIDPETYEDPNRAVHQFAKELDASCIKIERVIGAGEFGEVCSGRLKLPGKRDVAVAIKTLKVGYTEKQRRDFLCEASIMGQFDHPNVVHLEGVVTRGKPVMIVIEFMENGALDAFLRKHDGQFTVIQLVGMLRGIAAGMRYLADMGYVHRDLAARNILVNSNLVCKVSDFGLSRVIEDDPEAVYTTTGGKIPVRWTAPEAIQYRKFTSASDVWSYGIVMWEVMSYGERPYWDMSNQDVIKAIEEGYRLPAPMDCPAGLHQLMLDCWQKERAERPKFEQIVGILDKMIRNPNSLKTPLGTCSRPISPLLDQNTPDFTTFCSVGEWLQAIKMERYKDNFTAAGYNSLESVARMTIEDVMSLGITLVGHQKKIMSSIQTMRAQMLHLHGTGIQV
Description: as §1

[30] = target: KIT(V559D,T670I) (Homo sapiens (Human), UniProt P10721, T670I/V559D)
Description: as §1

[31] = target: IKK-alpha (Homo sapiens (Human), UniProt O15111)
Description: as §1

[32] = target: TRKB (Homo sapiens (Human), UniProt Q16620)
Description: as §1

[33] = target: PIP5K1A (Homo sapiens (Human), UniProt Q99755)
PIP5K1A, sequence (Q99755 whole entry): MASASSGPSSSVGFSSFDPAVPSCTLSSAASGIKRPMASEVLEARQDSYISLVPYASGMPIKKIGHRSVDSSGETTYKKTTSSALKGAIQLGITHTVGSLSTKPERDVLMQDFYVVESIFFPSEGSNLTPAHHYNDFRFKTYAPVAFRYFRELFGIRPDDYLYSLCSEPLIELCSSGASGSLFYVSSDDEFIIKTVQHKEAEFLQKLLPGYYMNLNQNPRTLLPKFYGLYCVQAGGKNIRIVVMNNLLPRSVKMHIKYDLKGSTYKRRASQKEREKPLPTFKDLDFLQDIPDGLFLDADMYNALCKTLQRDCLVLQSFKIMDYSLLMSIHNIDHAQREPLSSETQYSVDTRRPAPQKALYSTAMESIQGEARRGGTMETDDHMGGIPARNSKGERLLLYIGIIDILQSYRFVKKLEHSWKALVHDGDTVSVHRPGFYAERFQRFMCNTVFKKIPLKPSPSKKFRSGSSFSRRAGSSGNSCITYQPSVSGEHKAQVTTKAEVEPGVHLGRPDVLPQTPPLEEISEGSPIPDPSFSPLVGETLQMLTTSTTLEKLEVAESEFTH
Description: as §1

[34] = target: RSK2 (Kin.Dom.1-N-terminal) (Homo sapiens (Human), UniProt P51812)
Description: as §1

[35] = target: SBK1 (Homo sapiens (Human), UniProt Q52WX2)
Description: as §1

[36] = target: HIPK4 (Homo sapiens (Human), UniProt Q8NE63)
Description: as §1

[37] = target: IKK-beta (Homo sapiens (Human), UniProt O14920)
IKK-beta, sequence (O14920 whole entry): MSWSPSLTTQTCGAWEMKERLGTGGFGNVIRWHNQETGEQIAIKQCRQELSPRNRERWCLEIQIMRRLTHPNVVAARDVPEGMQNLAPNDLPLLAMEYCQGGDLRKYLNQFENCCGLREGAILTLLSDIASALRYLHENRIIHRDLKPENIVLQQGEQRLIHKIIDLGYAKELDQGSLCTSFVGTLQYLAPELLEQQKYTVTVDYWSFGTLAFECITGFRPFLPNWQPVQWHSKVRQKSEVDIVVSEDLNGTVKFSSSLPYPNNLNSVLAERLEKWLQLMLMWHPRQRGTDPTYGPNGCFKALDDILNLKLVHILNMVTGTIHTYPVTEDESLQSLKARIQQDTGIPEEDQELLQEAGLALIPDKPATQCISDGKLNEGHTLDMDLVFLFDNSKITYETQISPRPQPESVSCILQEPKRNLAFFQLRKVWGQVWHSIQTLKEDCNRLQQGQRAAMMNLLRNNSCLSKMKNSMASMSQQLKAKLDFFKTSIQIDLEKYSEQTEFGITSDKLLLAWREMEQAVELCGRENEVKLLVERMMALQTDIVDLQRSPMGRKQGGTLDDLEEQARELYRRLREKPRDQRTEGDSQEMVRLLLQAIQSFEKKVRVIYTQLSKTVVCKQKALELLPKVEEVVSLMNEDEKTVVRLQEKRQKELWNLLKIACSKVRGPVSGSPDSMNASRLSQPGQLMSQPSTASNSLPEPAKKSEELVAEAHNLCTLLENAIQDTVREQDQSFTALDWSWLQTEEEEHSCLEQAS
Description: as §1

[38] = target: EGFR (Homo sapiens (Human), UniProt P00533)
Description: as §1

PIK3CA(E545K), sequence (P42336 whole entry E545K): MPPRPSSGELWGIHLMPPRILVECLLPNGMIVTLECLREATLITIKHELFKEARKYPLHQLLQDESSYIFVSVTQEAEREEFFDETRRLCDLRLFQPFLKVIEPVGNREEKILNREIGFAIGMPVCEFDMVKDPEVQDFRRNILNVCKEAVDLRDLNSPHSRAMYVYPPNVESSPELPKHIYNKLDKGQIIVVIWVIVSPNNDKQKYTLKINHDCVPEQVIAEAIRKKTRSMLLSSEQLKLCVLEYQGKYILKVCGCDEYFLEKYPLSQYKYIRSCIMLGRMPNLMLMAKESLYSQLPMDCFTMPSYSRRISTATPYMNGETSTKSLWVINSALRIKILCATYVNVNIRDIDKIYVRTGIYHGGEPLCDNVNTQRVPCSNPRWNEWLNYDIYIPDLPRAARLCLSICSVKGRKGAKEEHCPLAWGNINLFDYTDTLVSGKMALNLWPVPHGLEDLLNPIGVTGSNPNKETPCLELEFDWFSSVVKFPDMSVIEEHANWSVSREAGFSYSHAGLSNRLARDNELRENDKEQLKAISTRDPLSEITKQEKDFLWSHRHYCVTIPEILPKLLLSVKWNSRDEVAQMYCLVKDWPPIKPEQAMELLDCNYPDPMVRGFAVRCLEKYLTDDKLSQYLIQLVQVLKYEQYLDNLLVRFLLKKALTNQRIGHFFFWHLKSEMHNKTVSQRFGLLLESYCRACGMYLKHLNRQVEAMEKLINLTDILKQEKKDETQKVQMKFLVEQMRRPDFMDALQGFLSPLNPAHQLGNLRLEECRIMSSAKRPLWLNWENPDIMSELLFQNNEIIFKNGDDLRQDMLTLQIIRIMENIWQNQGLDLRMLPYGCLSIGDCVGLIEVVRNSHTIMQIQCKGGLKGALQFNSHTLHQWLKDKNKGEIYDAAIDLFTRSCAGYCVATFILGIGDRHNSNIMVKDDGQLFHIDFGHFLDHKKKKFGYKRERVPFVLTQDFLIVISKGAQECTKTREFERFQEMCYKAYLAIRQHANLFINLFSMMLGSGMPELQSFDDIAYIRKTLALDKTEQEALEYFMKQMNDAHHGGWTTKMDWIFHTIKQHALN

Row | SMILES | remaining binding at 1 µM [1] [%] | remaining binding at 1 µM [2] [%] | remaining binding at 1 µM [3] [%] | remaining binding at 1 µM [4] [%] | remaining binding at 1 µM [5] [%] | remaining binding at 1 µM [6] [%] | remaining binding at 1 µM [7] [%] | remaining binding at 1 µM [8] [%] | remaining binding at 1 µM [9] [%] | remaining binding at 1 µM [10] [%] | remaining binding at 1 µM [11] [%] | remaining binding at 1 µM [12] [%] | remaining binding at 1 µM [13] [%] | remaining binding at 1 µM [14] [%] | remaining binding at 1 µM [15] [%] | remaining binding at 1 µM [16] [%] | remaining binding at 1 µM [17] [%] | remaining binding at 1 µM [18] [%] | remaining binding at 1 µM [19] [%] | remaining binding at 1 µM [20] [%] | also measured
1 | CCN1CCN(Cc2cc(NC(=O)c3ccc(C)c(-c4ccc5nc(NC(=O)C6CC6)cn5n4)c3)cc(C(F)(F)F)c2)CC1 [Compound I-2, 3-(2-(cyclopropanecarboxamido)imidazo[1,2-b]pyridazin-6-yl)-N-(3-((4-ethylpiperazin-1-yl)methyl)-5-(trifluoromethyl)phenyl)-4-methylbenzamide] | 99 | 25 | 0 | 50 | 96 | 62 | 27 | 53 | 100 | 5.7 | 1.8 | 75 | 39 | 97 | 1.7 | 97 | 100 | 87 | 84 | 96 | remaining binding at 1 µM [21]: 100%; remaining binding at 1 µM [22]: 69%; remaining binding at 1 µM [23]: 84%; remaining binding at 1 µM [24]: 100%; remaining binding at 1 µM [25]: 94%; remaining binding at 1 µM [26]: 94%; remaining binding at 1 µM [27]: 99%; remaining binding at 1 µM [28]: 100%; remaining binding at 1 µM [29]: 3.3%; remaining binding at 1 µM [30]: 6.6%; remaining binding at 1 µM [31]: 53%; remaining binding at 1 µM [32]: 0.05%; remaining binding at 1 µM [33]: 100%; remaining binding at 1 µM [34]: 88%; remaining binding at 1 µM [35]: 99%; remaining binding at 1 µM [36]: 32%; remaining binding at 1 µM [37]: 50%; remaining binding at 1 µM [38]: 31%
2 | CCN1CCN(Cc2cc(NC(=O)c3ccc(C)c(-c4ccc5nc(NC(=O)C6CC6)cn5c4)c3)cc(C(F)(F)F)c2)CC1 [Compound I-6, 3-(2-(cyclopropanecarboxamido)imidazo[1,2-a]pyridin-6-yl)-N-(3-((4-ethylpiperazin-1-yl)methyl)-5-(trifluoromethyl)phenyl)-4-methylbenzamide] | 93 | 49 | 0.1 | 68 | 100 | 87 | 74 | 46 | 87 | 40 | 1.3 | 97 | 21 | 96 | 5.9 | 80 | 100 | 100 | 86 | 100 | remaining binding at 1 µM [21]: 90%; remaining binding at 1 µM [22]: 59%; remaining binding at 1 µM [23]: 100%; remaining binding at 1 µM [24]: 96%; remaining binding at 1 µM [25]: 95%; remaining binding at 1 µM [26]: 100%; remaining binding at 1 µM [27]: 94%; remaining binding at 1 µM [28]: 91%; remaining binding at 1 µM [29]: 2%; remaining binding at 1 µM [30]: 5.5%; remaining binding at 1 µM [31]: 63%; remaining binding at 1 µM [32]: 0%; remaining binding at 1 µM [33]: 100%; remaining binding at 1 µM [34]: 78%; remaining binding at 1 µM [35]: 97%; remaining binding at 1 µM [36]: 55%; remaining binding at 1 µM [37]: 80%; remaining binding at 1 µM [38]: 24%
